The target of assay [1] is Sodium-dependent serotonin transporter (Rattus norvegicus, UniProt P31652).
The target in assay [2] is T1, 5-hydroxytryptamine receptor 1A (Rattus norvegicus, UniProt P19327).
T1 sequence (P19327 whole entry): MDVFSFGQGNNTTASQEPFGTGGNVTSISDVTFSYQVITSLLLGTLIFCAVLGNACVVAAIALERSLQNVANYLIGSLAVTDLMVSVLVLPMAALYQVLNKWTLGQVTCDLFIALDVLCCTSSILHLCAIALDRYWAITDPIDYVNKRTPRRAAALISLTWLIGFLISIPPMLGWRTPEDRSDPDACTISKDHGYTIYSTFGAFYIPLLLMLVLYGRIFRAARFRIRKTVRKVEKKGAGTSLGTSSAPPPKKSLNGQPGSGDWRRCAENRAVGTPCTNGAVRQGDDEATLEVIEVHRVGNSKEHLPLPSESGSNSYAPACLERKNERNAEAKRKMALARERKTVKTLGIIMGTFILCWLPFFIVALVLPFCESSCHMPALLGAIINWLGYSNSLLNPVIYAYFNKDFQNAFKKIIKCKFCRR

Assay [3] deals with Beta-1 adrenergic receptor (Rattus norvegicus, UniProt P18090).
Assay [4] concerns the target Histamine H1 receptor (Rattus norvegicus, UniProt P31390).

SMILES strings stand for the structures.

Beta-1 adrenergic receptor, sequence (P18090 whole entry): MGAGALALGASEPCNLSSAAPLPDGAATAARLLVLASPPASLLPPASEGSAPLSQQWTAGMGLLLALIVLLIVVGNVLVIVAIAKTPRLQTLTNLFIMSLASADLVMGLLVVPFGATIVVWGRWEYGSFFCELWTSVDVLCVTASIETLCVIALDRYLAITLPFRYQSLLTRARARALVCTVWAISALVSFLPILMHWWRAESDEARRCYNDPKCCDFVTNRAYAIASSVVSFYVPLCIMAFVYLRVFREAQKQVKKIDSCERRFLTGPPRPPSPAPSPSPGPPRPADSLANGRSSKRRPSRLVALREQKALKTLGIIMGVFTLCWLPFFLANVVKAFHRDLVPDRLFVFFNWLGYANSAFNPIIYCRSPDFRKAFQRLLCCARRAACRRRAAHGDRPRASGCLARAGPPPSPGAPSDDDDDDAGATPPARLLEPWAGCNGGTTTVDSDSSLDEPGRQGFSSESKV
Histamine H1 receptor, sequence (P31390 whole entry): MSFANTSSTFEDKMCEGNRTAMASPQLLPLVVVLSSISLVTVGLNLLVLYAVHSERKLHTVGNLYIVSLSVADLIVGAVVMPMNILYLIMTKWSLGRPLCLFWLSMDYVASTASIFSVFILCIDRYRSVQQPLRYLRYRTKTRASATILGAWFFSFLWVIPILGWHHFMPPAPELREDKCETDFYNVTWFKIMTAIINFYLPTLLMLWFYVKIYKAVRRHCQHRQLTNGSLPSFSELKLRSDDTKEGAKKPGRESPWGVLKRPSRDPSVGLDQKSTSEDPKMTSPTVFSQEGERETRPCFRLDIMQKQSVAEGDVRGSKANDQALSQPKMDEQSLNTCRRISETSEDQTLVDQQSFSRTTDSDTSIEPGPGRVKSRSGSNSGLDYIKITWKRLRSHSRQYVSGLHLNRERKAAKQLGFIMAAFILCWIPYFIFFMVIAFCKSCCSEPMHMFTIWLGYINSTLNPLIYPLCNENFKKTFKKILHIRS
Sodium-dependent serotonin transporter, sequence (P31652 whole entry): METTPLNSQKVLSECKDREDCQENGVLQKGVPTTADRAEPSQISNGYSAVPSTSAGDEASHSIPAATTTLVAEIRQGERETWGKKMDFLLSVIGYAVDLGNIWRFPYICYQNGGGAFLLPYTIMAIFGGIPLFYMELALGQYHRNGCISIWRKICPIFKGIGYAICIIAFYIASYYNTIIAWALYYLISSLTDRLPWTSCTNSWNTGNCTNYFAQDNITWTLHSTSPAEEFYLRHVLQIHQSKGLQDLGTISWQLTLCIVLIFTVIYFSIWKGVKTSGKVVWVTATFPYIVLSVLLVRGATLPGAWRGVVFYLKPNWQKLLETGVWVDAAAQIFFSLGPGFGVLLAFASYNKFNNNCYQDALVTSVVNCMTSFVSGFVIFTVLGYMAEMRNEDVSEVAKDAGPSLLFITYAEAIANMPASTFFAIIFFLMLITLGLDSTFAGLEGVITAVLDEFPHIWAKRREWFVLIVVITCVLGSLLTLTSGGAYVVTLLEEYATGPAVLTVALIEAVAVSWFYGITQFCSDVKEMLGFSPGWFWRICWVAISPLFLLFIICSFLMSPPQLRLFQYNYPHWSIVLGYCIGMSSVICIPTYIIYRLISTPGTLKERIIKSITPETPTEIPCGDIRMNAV

In the case of `N=C(N)NC(=O)c1nc(Cl)c(N2CCCCCC2)nc1N`, the inhibition constant (Ki) is 7.9 µM in assay [1], over 10 µM in assay [2], over 10 µM in assay [3] and 5.6 µM in assay [4].
With `N=C(N)NC(=O)c1nc(Cl)c(N)nc1N` [3,5-diamino-N-carbamimidoyl-6-chloropyrazine-2-carboxamide], the inhibitory constant (Ki) in assay [2], in assay [3] and in assay [4] was over 10 µM in each case.
Regarding `NC(=NCc1ccccc1)NC(=O)c1nc(Cl)c(N)nc1N` [NSC_108107], the Ki in assay [1] was 1.9 µM; in assay [2], 1.9 µM; in assay [3], over 10 µM; in assay [4] it was 3.2 µM.

Source of the values: BindingDB's records for doi:10.3109/10799899109064686 (Center For Bio-Pharmaceutical Sciences, 1991).
